Measurements: patent publication US20250032506A1, “GLUCOCORTICOID RECEPTOR BLOCKADE WITH MIFEPRISTONE TO SENSITIZE PANCREATIC CANCER TO IMMUNOTHERAPY” (BOARD OF REGENTS, THE UNIVERSITY OF TEXAS SYSTEM, priority 2021, published 2025)

Columns and labels:
HY24409 cells = test: Cell cycle analysis after double thymidine block; assay type: cell-based, mouse; settings: flow cytometry; mifepristone 20 μM, 48 h pretreatment; unsynchronized and after release from double thymidine block
Protocol: Cell cycle analysis Cells were seeded in 6-well plates (2×10^5 cells per well) and treated with 2 mM thymidine (Sigma-Aldrich, T9250-1G) for 18 hours, fresh medium for 9 hours, and 2 mM thymidine again for 17 hours to arrest cells in G1/S phases for synchronization. Released cells were collected at the indicated time points by centrifugation, washed in cold PBS, resuspended in 1 ml of 70% ethanol, and stored at −20° C. overnight. Cells were then collected by centrifugation and washed two times with cold PBS. To ensure that only DNA was stained, cells were treated with 50 μl of 100 μg ml^−1 RNase (New England Biolabs, T3018L), and added 425 μl of cell staining buffer (2% FBS in PBS) and 25 μl of propidium iodide solution (BioLegend, 421301). After staining, samples were analyzed by flow cytometry. Cells were gated for PI staining and the cells in G1, S, and G2/M phases were quantitated using FlowJo software.

[1] = system: orthotopic HY24409 tumors; test: Immune checkpoint blockade experiments in male C57BL/6 mice bearing orthotopic HY24409 tumors; assay type: in vivo, mouse; settings: compared with the vehicle+IgG control
Protocol: (§1) Orthotopic pancreatic tumor size was determined by MRI. Subcutaneous tumor size was measured with a caliper. […] Animal body weight was measured throughout the study.

HY19636 cells = test: qPCR and flow cytometry of PD-L1, MHC-I and B2M in HY19636 cells; assay type: cell-based, mouse; settings: MIFE 20 μM, 48 h
Excerpt: (§2) The male PDAC cell lines HY24409 and HY24160 and the female PDAC cell line HY19636 were established from KPC mice (p48-Cre; Kras^LSL-G12D/+; Trp53^loxP/+) that were backcrossed to a C57BL/6 background (purity: ˜ 98%). (See Bardeesy, N., et al. supra). The human PDAC cell lines SU86.86 ([…]), SW1990 ([…]), BXPC-3 ([…]), Miapaca-2 ([…]), Capan-1 ([…]), ASPC-1 ([…]), Hs766T ([…]), Colo357/FG ([…]), L3.6PL ([…]), Panc28 ([…]), Capan-2 ([…]), CF-Pac-1 ([…]), Panc3 (sex unknown), Panc1 ([…]), Panc48 (sex unknown), and HPAC ([…]) were from Mien-Chie Hung's lab stock. The HY24409, HY24160, HY19636, SU86.86, SW1990, and Hs766T cell lines were cultured in RPMI 1640 (Corning, 10-041-CV) supplemented with 10% fetal bovine serum (FBS) (Gibco, 10438-034) and 1% penicillin/streptomycin (Sigma, P4333). The BXPC-3, Miapaca-2, Capan-1, ASPC-1, Colo357/FG, L3.6PL, Panc28, Capan-2, CF-Pac-1, Panc3, Panc1, Panc48, and HPAC cell lines were cultured in DMEM/F-12 (Corning, 10-092-CV) supplemented with 10% FBS and 1% penicillin/streptomycin. Cells were grown in a humidified incubator with 5% CO2 at 37° C., and low-passage stocks were maintained in a centralized lab cell bank. Short tandem repeat profiling and mycoplasma tests were done by the Cytogenetics and Cell Authentication Core at MD Anderson Cancer Center.
Immunity 54, 1561-1577 e1567 (2021).

[2] = system: tumors formed by KPC cell lines (HY24409, HY24160); test: Tumor growth in immunodeficient NSG mice implanted with KPC cell lines; assay type: in vivo, mouse; settings: mifepristone oral gavage 60 mg kg-1, twice every 3 days
Protocol: as §1

[3] = system: orthotopic HY24409 tumors; test: Orthotopic HY24409 pancreatic tumors in C57BL/6 mice; assay type: in vivo, mouse
Protocol: as §1

[4] = system: orthotopic HY19636 tumors; test: Female C57BL/6 mice bearing orthotopic HY19636 tumors; assay type: in vivo, mouse
Protocol: as §1

SU86.86 cells = test: qPCR, immunoblotting and flow cytometry of PD-L1 and MHC-I pathway expression in SU86.86 cells; assay type: cell-based, human
Protocol: as §2, with “(See” for “The male PDAC cell lines HY24409 and HY24160 and the female PDAC cell line HY19636 were established from KPC mice (p48-Cre; Kras^LSL-G12D/+; Trp53^loxP/+) that were backcrossed to a C57BL/6 background (purity: ˜ 98%). (See”, “The HY24409, HY24160, HY19636, SU86.86, SW1990, and Hs766T cell lines were cultured in RPMI 1640 (Corning, 10-041-CV) supplemented with 10% fetal bovine serum (FBS) (Gibco, 10438-034) and 1% penicillin/streptomycin (Sigma, P4333).” left out
Membranes were blocked with 10% non-fat milk in TBST and incubated with the primary antibody at 4° C. overnight, followed by incubation with the secondary antibody conjugated with horseradish peroxidase (HRP).

## CC#C[C@]1(O)CC[C@H]2[C@@H]3CCC4=CC(=O)CCC4=C3[C@@H](c3ccc(N(C)C)cc3)C[C@@]21C [mifepristone]
HY24409 cells
  cell cycle profile: neither GR knockdown (FIGS. 11Q-11R) nor mifepristone treatment (FIGS. 11S-11T) altered the cell cycle profile
[1]
  survival: did not lead to a significant improvement in survival
HY19636 cells
  MHC-I and B2M at mRNA and surface protein levels: upregulated
  PD-L1 at mRNA and surface protein levels: downregulated
[2]
  growth of tumors formed by KPC cell lines: neither mifepristone treatment (FIGS. 11A-11J) nor shRNA-mediated GR knockdown (FIGS. 11K-11N) affected the growth of tumors
[3]; C57BL/6 mice bearing orthotopic HY24409 tumors, mifepristone 60 mg kg-1
  body weight: without significant loss of body weight
[3]; C57BL/6 mice, HY24409, mifepristone oral gavage 60 mg kg-1, twice every 3 days
  orthotopic pancreatic tumor volume (magnetic resonance imaging) and weight: substantial reductions
[3]; C57BL/6 mice, orthotopic HY24409, mifepristone plus anti-CD8 antibody
  tumor growth inhibition upon antibody-mediated depletion of CD8+ T cells: abolished
[3]; C57BL/6 mice, orthotopic HY24409, vs vehicle or control shRNA
  reduction in tumor weight at the endpoint: 67.7%
[4]
  body weight: without reducing body weight
  tumor growth: markedly inhibited tumor growth
[4]; mifepristone with dual ICB
  sensitivity of tumors to dual ICB: rendered sensitivity to dual ICB
SU86.86 cells; Western blot and flow cytometric analysis, MIFE 72 h
  PD-L1 protein: downregulated
SU86.86 cells; Western blot and flow cytometry, MIFE 72 h
  MHC-I and B2M proteins: upregulation
SU86.86 cells; qPCR, MIFE 20 μM, 72 h
  mRNA levels of components in the MHC-I pathway, including HLA-A, HLA-B, HLA-C, B2M, SEC61B, and SEC61G: increased
  mRNA levels of immune checkpoint ligands, including PD-L1, CD47, TDO, and SIGLEC15: decreased
